Results published in patent publication US11767307B2, “Litter for promoting pet's in-litter elimination” (SPECIALITES PET FOOD, priority 2018, dated 2023).

Experiments:
[1] = tested on: cats; details: 21 commercial cat attractants tested; cited from earlier work
[2] = tested on: cat elimination behavior; experiment: Two-litter-box test of cat elimination behavior (deposits weight in litter); type: in vivo, cats; details: measured on non-soiled litters the first day of use
Text: Twenty cats in 5 living rooms (4 cats per room) were involved in the study. The study lasted 4 days and two litter boxes containing two different products, i.e. a control cat litter (Litter 1, non-clumping clay) and an experimental cat litter (Litter 2) sprayed with 0.1% of composition A according to Example 1, were presented to the cats.
Diet was controlled for each test by measuring food intake. The temperature of the rooms was controlled. In each room, an equal proportion of males/females was respected.
Twenty cats in 5 living rooms (4 cats per room) were involved in the study. Two litter boxes containing two different products, i.e. a control cat litter (Litter 3, non-clumping clay) and an experimental cat litter (Litter 4) sprayed with 0.1% of composition B according to Example 1, were presented to the cats.

SMILES	preference by cats for urine elimination versus control [1]	in-litter cat elimination promoting (attractant) effect [2]
CC(C)(CCO)SC[C@H](N)C(=O)O [L-Felinine]	significantly preferred	–
CC1(C)OCC(CO)O1 (centres unmarked) [composition A, 2,2-dimethyl-1,3-dioxolane-4-methanol]	–	in-litter cat elimination promoting (or attractant) effect
